We go through 18 compounds from PubChem BioAssay (NCI).

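Following 48 hours of exposure in 96-well plates, responses at five concentrations were used to interpolate endpoints linearly. TGI: total growth inhibition.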

Among the test systems are PC-3 prostate; RPMI-8226 leukemia; NCI-H23 lung; SW-620 colon; MCF7 breast; SF-268 CNS; OVCAR-3 ovarian; HS 578T breast; BT-549 breast; LOX IMVI melanoma; CAKI-1 renal.
What all share (experiment): DTP human tumour cell line panel, 48 h

Regarding `Cc1cccc2c(N)c3cccc(C(=O)NCCN4CCOCC4)c3nc12`, the TGI in the assay with PC-3 prostate was 7.19 µM; with RPMI-8226 leukemia, greater than 60.4 µM; in the assay on NCI-H23 lung, 2.17 µM; in the assay with SW-620 colon, 26.1 µM; with MCF7 breast, greater than 32.1 µM; with SF-268 CNS it was 1.19 µM. Further, the total growth inhibition concentration (TGI) was 16.9 µM in the assay with OVCAR-3 ovarian; 0.43 µM in the assay on HS 578T breast; 8.54 µM in the assay with BT-549 breast; 4.28 µM with LOX IMVI melanoma; 17.3 µM in the assay on CAKI-1 renal.
On to `COc1cc2c(cc1O)-c1c(OC)c(O)cc3c1C(C2)N(C)CC3` (stereo not drawn), for which the TGI in the assay with PC-3 prostate, in the assay with RPMI-8226 leukemia, with NCI-H23 lung, with SW-620 colon, with MCF7 breast and with SF-268 CNS was greater than 100 µM throughout. The TGI in the assay with OVCAR-3 ovarian, with HS 578T breast, in the assay on BT-549 breast, with LOX IMVI melanoma and in the assay with CAKI-1 renal was greater than 100 µM in each case.
On to `COc1cc(S(=O)(=O)Nc2ccc(-c3csc(/N=C\C=C\c4ccccc4)n3)cc2)ccc1Cl`, for which the TGI is 56.7 µM in the assay with PC-3 prostate; greater than 100 µM with RPMI-8226 leukemia; greater than 100 µM with NCI-H23 lung; greater than 100 µM in the assay with SW-620 colon; greater than 100 µM in the assay on MCF7 breast; greater than 100 µM in the assay with SF-268 CNS. The TGI with OVCAR-3 ovarian, with HS 578T breast, in the assay with BT-549 breast, in the assay on LOX IMVI melanoma and in the assay with CAKI-1 renal was greater than 100 µM each time.
Regarding `Cc1cc(S(=O)(=O)Nc2nc(N)nc(N(C)C)n2)c(SC(C(=O)O)c2ccccc2)cc1Cl` (stereo not drawn), the TGI in the assay on PC-3 prostate, in the assay with RPMI-8226 leukemia, in the assay on NCI-H23 lung, with SW-620 colon, in the assay on MCF7 breast and with SF-268 CNS was greater than 10 µM each time. The TGI in the assay with OVCAR-3 ovarian, in the assay on HS 578T breast, with BT-549 breast, in the assay with LOX IMVI melanoma and in the assay on CAKI-1 renal was greater than 10 µM in each case.
Consider `CCCCCCCCCCCCCCCCNc1ccc2c(c1)OCCOCCOCCOCCO2`, for which the total growth inhibition concentration (TGI) was determined as 6.43 µM with PC-3 prostate; 4.49 µM in the assay with RPMI-8226 leukemia; 11.5 µM in the assay on NCI-H23 lung; 13.3 µM with SW-620 colon; 13.2 µM in the assay on MCF7 breast; 11.9 µM in the assay with SF-268 CNS. For the same compound, the TGI in the assay with OVCAR-3 ovarian was 8.75 µM; with HS 578T breast, 9.1 µM; in the assay on BT-549 breast, 11.6 µM; in the assay with LOX IMVI melanoma, 5.42 µM; in the assay on CAKI-1 renal it was 13.6 µM.
On to `Cc1ccc(C2SC(N)=Nc3c2c(C)nn3C(=O)c2ccc(Cl)cc2)cc1` (stereo not drawn), for which the TGI in the assay with PC-3 prostate, with RPMI-8226 leukemia, in the assay on NCI-H23 lung, with SW-620 colon, in the assay with MCF7 breast and in the assay with SF-268 CNS was greater than 10 µM throughout. The TGI in the assay on OVCAR-3 ovarian, in the assay on HS 578T breast, in the assay on BT-549 breast, in the assay with LOX IMVI melanoma and in the assay on CAKI-1 renal was greater than 10 µM throughout.
In the case of `O=C1Cc2c(-c3ccccc3)cc(-c3ccc4ccccc4c3)nc2-c2ccccc2N1`, the TGI with PC-3 prostate is 45.5 µM; in the assay with RPMI-8226 leukemia, greater than 100 µM; with NCI-H23 lung it was greater than 100 µM; in the assay on SW-620 colon it was greater than 100 µM; in the assay with MCF7 breast, greater than 100 µM; in the assay on SF-268 CNS, 29.9 µM. Besides, the TGI with OVCAR-3 ovarian was 27.6 µM; in the assay on HS 578T breast, 7.77 µM; in the assay on BT-549 breast, greater than 100 µM; with LOX IMVI melanoma it was greater than 100 µM; in the assay on CAKI-1 renal it was 12.5 µM.
Regarding `Cc1ccc(N=Nc2c(C)nn(C(=O)CC(=O)Nc3ccc(Cl)cc3)c2C)cc1C`, the TGI with PC-3 prostate, in the assay on RPMI-8226 leukemia, with NCI-H23 lung, in the assay on SW-620 colon, in the assay with MCF7 breast and with SF-268 CNS was greater than 100 µM in each case. Further, the concentration for total growth inhibition (TGI) in the assay with OVCAR-3 ovarian was greater than 100 µM; in the assay with HS 578T breast it was 30.7 µM; in the assay on BT-549 breast, greater than 100 µM; in the assay with LOX IMVI melanoma it was greater than 100 µM; with CAKI-1 renal, greater than 100 µM.
In the case of `Cc1ccc(S(=O)(=O)c2ccsc2NC(=O)c2ccccc2)cc1`, the TGI with PC-3 prostate was greater than 100 µM; in the assay on RPMI-8226 leukemia it was greater than 100 µM; in the assay with NCI-H23 lung it was greater than 31.6 µM; in the assay with SW-620 colon, greater than 100 µM; in the assay with MCF7 breast it was greater than 100 µM; with SF-268 CNS it was greater than 82.5 µM. For the same compound, the TGI in the assay with OVCAR-3 ovarian was greater than 100 µM; in the assay with HS 578T breast, 76.2 µM; in the assay on BT-549 breast it was greater than 100 µM; in the assay with LOX IMVI melanoma, greater than 100 µM; with CAKI-1 renal, 97.4 µM.
For the compound `Cc1n(-c2ccccc2)c2c([n+]1Cc1ccc([N+](=O)[O-])cc1)C(=O)c1ccccc1C2=O`, the TGI amounted to 7.25 µM in the assay with PC-3 prostate; 3.82 µM in the assay on RPMI-8226 leukemia; 5.22 µM in the assay on NCI-H23 lung; 6.63 µM in the assay on SW-620 colon; 2.75 µM in the assay on MCF7 breast; 3.71 µM in the assay on SF-268 CNS. The concentration for total growth inhibition (TGI) turned out to be 0.854 µM in the assay on OVCAR-3 ovarian; 5.51 µM with HS 578T breast; 3.18 µM in the assay on BT-549 breast; 3.73 µM in the assay with LOX IMVI melanoma; 39.7 µM with CAKI-1 renal.
Turning to `NS(=O)(=O)c1ccc(N=Nc2nc3[nH]cnc(=S)c3[nH]2)cc1`, the TGI with PC-3 prostate was greater than 41.4 µM; in the assay on RPMI-8226 leukemia, 6.53 µM; with NCI-H23 lung, 14.2 µM; in the assay on SW-620 colon it was greater than 100 µM; in the assay on MCF7 breast, greater than 100 µM; in the assay on SF-268 CNS it was greater than 100 µM. Further, the TGI was greater than 22.5 µM in the assay with OVCAR-3 ovarian; greater than 87 µM in the assay with HS 578T breast; greater than 37.9 µM in the assay with BT-549 breast; 15.4 µM with LOX IMVI melanoma; greater than 100 µM with CAKI-1 renal.
Take `Nc1nc(NCC2(CO)CC(CCc3ccccc3)C2)cc(=O)[nH]1` (stereo not drawn): the concentration for total growth inhibition (TGI) with PC-3 prostate, in the assay on RPMI-8226 leukemia, with NCI-H23 lung, in the assay with SW-620 colon, with MCF7 breast and in the assay on SF-268 CNS was greater than 100 µM in each case. Besides, the concentration for total growth inhibition (TGI) with OVCAR-3 ovarian, in the assay on HS 578T breast, in the assay on BT-549 breast, in the assay with LOX IMVI melanoma and in the assay with CAKI-1 renal was greater than 100 µM throughout.
Consider `CCN(CC)C(=O)N[C@@H](Cc1ccccc1)C(=O)NC`, for which the TGI in the assay on PC-3 prostate, in the assay with RPMI-8226 leukemia, with NCI-H23 lung, in the assay with SW-620 colon, in the assay with MCF7 breast and with SF-268 CNS was greater than 100 µM each time. Further, the TGI in the assay with OVCAR-3 ovarian, in the assay on HS 578T breast, in the assay on BT-549 breast, in the assay on LOX IMVI melanoma and in the assay on CAKI-1 renal was greater than 100 µM in each case.
As to `Cc1cn(CCCCOC(=O)NC(CCCNC(N)=O)C(=O)O)c(=O)[nH]c1=O` (stereo not drawn), the TGI with PC-3 prostate, in the assay with RPMI-8226 leukemia, with NCI-H23 lung, in the assay with SW-620 colon, with MCF7 breast and in the assay with SF-268 CNS was greater than 100 µM each time. Moreover, the TGI in the assay with OVCAR-3 ovarian, in the assay with HS 578T breast, with BT-549 breast, in the assay with LOX IMVI melanoma and with CAKI-1 renal was greater than 100 µM each time.
For the compound `CC1=C2c3ccccc3N(S(=O)(=O)c3ccccc3)[C@H]2[C@H](C(=O)N2C3CC4CC[C@@]3(CS2(=O)=O)C4(C)C)CC1` (stereo partly drawn), the TGI in the assay on PC-3 prostate was greater than 100 µM; with RPMI-8226 leukemia, 7.05 µM; with NCI-H23 lung, greater than 100 µM; with SW-620 colon it was greater than 100 µM; in the assay with MCF7 breast, 75.4 µM; in the assay on SF-268 CNS, greater than 100 µM. Besides, the TGI in the assay with OVCAR-3 ovarian is greater than 100 µM; in the assay with HS 578T breast, greater than 100 µM; with BT-549 breast, 81.7 µM; with LOX IMVI melanoma, greater than 100 µM; in the assay on CAKI-1 renal, greater than 100 µM.
Turning to `N#Cc1c(-c2ccccc2)c(C#N)c(=S)n(C2OCC(O)C(O)C2O)c1N` (stereo not drawn), the total growth inhibition concentration (TGI) in the assay on PC-3 prostate, in the assay on RPMI-8226 leukemia, in the assay on NCI-H23 lung, in the assay with SW-620 colon, in the assay on MCF7 breast and in the assay with SF-268 CNS was greater than 100 µM each time. In addition, the TGI with OVCAR-3 ovarian, in the assay with HS 578T breast, in the assay on BT-549 breast, in the assay with LOX IMVI melanoma and with CAKI-1 renal was greater than 100 µM in each case.
Turning to `CCCCC1=CC1(C#N)[N+](=O)[O-]` (stereo not drawn), the TGI in the assay with PC-3 prostate, with RPMI-8226 leukemia, in the assay with NCI-H23 lung, in the assay with SW-620 colon, in the assay with MCF7 breast and with SF-268 CNS was greater than 100 µM in each case. Further, the TGI in the assay on OVCAR-3 ovarian, in the assay on HS 578T breast, in the assay on BT-549 breast, in the assay with LOX IMVI melanoma and with CAKI-1 renal was greater than 100 µM throughout.
Turning to `CCN(CC)CCOCC1CCCN2CCCCC12` (stereo not drawn), the TGI in the assay on PC-3 prostate, with RPMI-8226 leukemia, in the assay with NCI-H23 lung, in the assay on SW-620 colon, with MCF7 breast and in the assay with SF-268 CNS was greater than 100 µM each time. Besides, the TGI with OVCAR-3 ovarian, in the assay on HS 578T breast, in the assay on BT-549 breast, in the assay on LOX IMVI melanoma and in the assay on CAKI-1 renal was greater than 100 µM throughout.
